Test results reported in ChEMBL document CHEMBL3352746, “Synthesis and anticancer activity of quinopimaric and maleopimaric acids’ derivatives” (Bioorg Med Chem, 2014).

Tests used:
[1] = Antitumor activity against mouse AKATOL cells implanted in mouse assessed as tumor growth inhibition at 40 mg/kg, ip dosed daily for 5 days measured 1 day after treatment termination; type: functional; conditions: route intraperitoneal, read-out: TGI
P388 [2] = experiment: Antitumor activity against mouse P388 cells implanted in mouse assessed as increase in life span at 10 mg/kg, ip dosed daily for 5 days administered 24 hrs after tumor implantation; type: functional; conditions: route intraperitoneal
[3] = Antitumor activity against mouse AKATOL cells implanted in mouse assessed as tumor growth inhibition at 40 mg/kg, ip dosed daily for 5 days measured 5 days after treatment termination; type: functional; conditions: 120 h, route intraperitoneal, read-out: TGI
Mus musculus [4] = experiment: Toxicity in mouse P388 cells implanted mouse assessed as mean spleen weight at 10 mg/kg, ip dosed daily for 5 days administered 24 hrs after tumor implantation; type: organism-based; design: dose 10 mg/kg, route intraperitoneal; conditions: in vivo
P388 [5] = experiment: Antitumor activity against mouse P388 cells implanted in mouse assessed as increase in life span at 40 mg/kg, ip dosed daily for 5 days administered 24 hrs after tumor implantation; type: functional; conditions: route intraperitoneal
A549 = experiment: Growth inhibition of human A549/ATCC cells; type: functional
[6] = Growth inhibition of human UACC62 cells; type: functional
[7] = tested on: Lewis lung carcinoma cell line; experiment: Antitumor activity against mouse LLC cells implanted in mouse assessed as increase in life span at 40 mg/kg, ip dosed daily for 5 days; type: functional; conditions: 120 h, route intraperitoneal
P388 [8] = experiment: Antitumor activity against mouse P388 cells implanted in mouse assessed as increase in life span at 20 mg/kg, ip dosed daily for 5 days administered 24 hrs after tumor implantation; type: functional; conditions: route intraperitoneal
K562 = experiment: Growth inhibition of human K562 cells; type: functional
[9] = tested on: Lewis lung carcinoma cell line; experiment: Antitumor activity against mouse LLC cells implanted in mouse assessed as tumor growth inhibition at 40 mg/kg, ip dosed daily for 5 days measured 5 days after treatment termination; type: functional; conditions: 120 h, route intraperitoneal, read-out: TGI
[10] = Growth inhibition of human HCT116 cells; type: functional
SW-620 = experiment: Growth inhibition of human SW620 cells; type: functional
HL-60(TB) = experiment: Growth inhibition of human HL-60(TB) cells; type: functional
[11] = Growth inhibition of human OVCAR4 cells; type: functional, OVCAR-4
Mus musculus [12] = experiment: Toxicity in mouse Ehrlich carcinoma cells implanted mouse assessed as mean ascites volume at 50 mg/kg, ip dosed daily for 5 days administered 48 hrs after tumor implantation; type: organism-based; design: dose 50 mg/kg, route intraperitoneal; conditions: in vivo
[13] = Growth inhibition of human OVCAR3 cells; type: functional
[14] = Growth inhibition of human COLO205 cells; type: functional
KM12 = experiment: Growth inhibition of human KM12 cells; type: functional
[15] = Antitumor activity against mouse AKATOL cells implanted in mouse assessed as tumor growth inhibition at 40 mg/kg, ip dosed daily for 5 days measured 8 to 9 days after treatment termination; type: functional; conditions: route intraperitoneal, read-out: TGI
Mus musculus [16] = experiment: Toxicity in mouse P388 cells implanted mouse assessed as mean spleen weight at 40 mg/kg, ip dosed daily for 5 days administered 24 hrs after tumor implantation; type: organism-based; design: dose 40 mg/kg, route intraperitoneal; conditions: in vivo
Mus musculus [17] = experiment: Toxicity in mouse P388 cells implanted mouse assessed as mouse mortality at 20 mg/kg, ip dosed daily for 5 days administered 24 hrs after tumor implantation; type: organism-based; design: dose 20 mg/kg, route intraperitoneal; conditions: in vivo
P388 [18] = experiment: Antitumor activity against mouse P388 cells implanted in mouse assessed as increase in life span at 60 mg/kg, ip dosed daily for 5 days administered 24 hrs after tumor implantation; type: functional; conditions: route intraperitoneal
SR = experiment: Growth inhibition of human SR cells; type: functional
SNB-19 = experiment: Growth inhibition of human SNB19 cells; type: functional
Malme-3M = experiment: Growth inhibition of human MALME-3M cells; type: functional
[19] = Growth inhibition of human UO31 cells; type: functional
CCRF-CEM = experiment: Growth inhibition of human CCRF-CEM cells; type: functional
SK-MEL-5 = experiment: Growth inhibition of human SK-MEL-5 cells; type: functional
[20] = Growth inhibition of human MOLT4 cells; type: functional
CAKI-1 = experiment: Growth inhibition of human CAKI-1 cells; type: functional
HOP-62 = experiment: Growth inhibition of human HOP62 cells; type: functional
[21] = tested on: Lewis lung carcinoma cell line; experiment: Antitumor activity against mouse LLC cells implanted in mouse assessed as tumor growth inhibition at 40 mg/kg, ip dosed daily for 5 days measured 19 days after treatment termination; type: functional; conditions: route intraperitoneal, read-out: TGI
NCI-H226 = experiment: Growth inhibition of human NCI-H226 cells; type: functional
SK-MEL-28 = experiment: Growth inhibition of human SK-MEL-28 cells; type: functional
[22] = Antitumor activity against mouse CA-755 cells implanted in mouse assessed as tumor growth inhibition at 40 mg/kg, ip dosed daily for 5 days measured 1 day after treatment termination; type: functional; conditions: CA-755, ip, route intraperitoneal, read-out: TGI
NCI-H460 = experiment: Growth inhibition of human NCI-H460 cells; type: functional
[23] = Antitumor activity against mouse AKATOL cells implanted in mouse assessed as tumor growth inhibition at 40 mg/kg, ip dosed daily for 5 days measured 12 days after treatment termination; type: functional; conditions: route intraperitoneal, read-out: TGI
NCI-H522 = experiment: Growth inhibition of human NCI-H522 cells; type: functional
TK-10 = experiment: Growth inhibition of human TK10 cells; type: functional
[24] = read-out: pLC50 (the source's name) (converted)

COC(=O)[C@]1(C)CCC[C@]2(C)[C@H]3C[C@H]4C(C(C)C)=C[C@]3(CC[C@H]21)[C@@H]1/C(=N/O)CC/C(=N\O)[C@@H]14
inhibition in vivo at 40 mg/kg [1]: 57% | ILS at 10 mg/kg (P388 [2]): -4% | inhibition in vivo at 40 mg/kg [3]: 60% | Activity (Mus musculus [4]): 95 mg | ILS at 40 mg/kg (P388 [5]): -7% | GI50 (A549; A549): 3.09 µM | CC50 (A549; A549, read-out: pLC50 (converted)): > 100 µM | TGI (A549; A549, read-out: pTGI (converted)): 10.5 µM | GI50 ([6]; UACC-62): 4.68 µM | CC50 ([6]; UACC-62, read-out: pLC50 (the source's name) (converted)): 67.6 µM | TGI ([6]; UACC-62, read-out: pTGI (converted)): 22.4 µM | ILS at 40 mg/kg [7]: 18% | ILS at 20 mg/kg (P388 [8]): -4% | GI50 (K562; K562): 3.24 µM | CC50 (K562; K562, read-out: pLC50 (converted)): > 100 µM | TGI (K562; K562, read-out: pTGI (converted)): 11.7 µM | inhibition in vivo at 40 mg/kg [9]: 33% | GI50 ([10]; HCT-116): 2.75 µM | CC50 ([10]; HCT-116, read-out: pLC50 (the source's name) (converted)): 47.9 µM | TGI ([10]; HCT-116, read-out: pTGI (converted)): 8.51 µM | GI50 (SW-620): 3.47 µM | CC50 (SW-620; [24]): 49 µM | TGI (SW-620; read-out: pTGI (converted)): 14.5 µM | GI50 (HL-60(TB)): 1.95 µM | CC50 (HL-60(TB); [24]): 36.3 µM | TGI (HL-60(TB); read-out: pTGI (converted)): 4.57 µM | GI50 ([11]; OVCAR-4): 3.55 µM | CC50 ([11]; OVCAR-4, read-out: pLC50 (converted)): > 100 µM | TGI ([11]; OVCAR-4, read-out: pTGI (converted)): 19.1 µM | Activity (Mus musculus [12]): 0.63 mL | GI50 ([13]; OVCAR-3): 2.4 µM | CC50 ([13]; OVCAR-3, read-out: pLC50 (the source's name) (converted)): 15.8 µM | TGI ([13]; OVCAR-3, read-out: pTGI (converted)): 5.37 µM | GI50 ([14]; COLO 205): 2.19 µM | CC50 ([14]; COLO 205, read-out: pLC50 (the source's name) (converted)): 8.51 µM | TGI ([14]; COLO 205, read-out: pTGI (converted)): 4.37 µM | GI50 (KM12): 3.39 µM | CC50 (KM12; [24]): 34.7 µM | TGI (KM12; read-out: pTGI (converted)): 10.7 µM | inhibition in vivo at 40 mg/kg [15]: 41% | Activity (Mus musculus [16]): 212 mg | Activity (Mus musculus [17]): Non-toxic | ILS at 60 mg/kg (P388 [18]): -10% | GI50 (SR): 2 µM | CC50 (SR; [24]): 25.1 µM | TGI (SR; read-out: pTGI (converted)): 4.79 µM | GI50 (SNB-19): 11.5 µM | CC50 (SNB-19; [24]): 55 µM | TGI (SNB-19; read-out: pTGI (converted)): 25.1 µM | GI50 (Malme-3M): 5.89 µM | CC50 (Malme-3M; [24]): 50.1 µM | TGI (Malme-3M; read-out: pTGI (converted)): 20 µM | GI50 ([19]; UO-31): 4.9 µM | CC50 ([19]; UO-31, read-out: pLC50 (the source's name) (converted)): 75.9 µM | TGI ([19]; UO-31, read-out: pTGI (converted)): 20.9 µM | GI50 (CCRF-CEM): 2.4 µM | CC50 (CCRF-CEM; [24]): 50.1 µM | TGI (CCRF-CEM; read-out: pTGI (converted)): 7.08 µM | GI50 (SK-MEL-5): 3.09 µM | CC50 (SK-MEL-5; [24]): 36.3 µM | TGI (SK-MEL-5; read-out: pTGI (converted)): 11.5 µM | GI50 ([20]; MOLT-4): 1.86 µM | CC50 ([20]; MOLT-4, read-out: pLC50 (the source's name) (converted)): 33.9 µM | TGI ([20]; MOLT-4, read-out: pTGI (converted)): 6.31 µM | GI50 (CAKI-1; CAKI-1): 7.08 µM | CC50 (CAKI-1; CAKI-1, read-out: pLC50 (converted)): > 100 µM | TGI (CAKI-1; CAKI-1, read-out: pTGI (converted)): 32.4 µM | GI50 (HOP-62): 15.1 µM | CC50 (HOP-62; [24]): 95.5 µM | TGI (HOP-62; read-out: pTGI (converted)): 38 µM | inhibition in vivo at 40 mg/kg [21]: 37% | GI50 (NCI-H226): 7.94 µM | CC50 (NCI-H226; [24]): 85.1 µM | TGI (NCI-H226; read-out: pTGI (converted)): 28.2 µM | GI50 (SK-MEL-28): 9.33 µM | CC50 (SK-MEL-28; [24]): 53.7 µM | TGI (SK-MEL-28; read-out: pTGI (converted)): 22.9 µM | inhibition in vivo at 40 mg/kg [22]: 83% | GI50 (NCI-H460): 2.29 µM | CC50 (NCI-H460; [24]): 46.8 µM | TGI (NCI-H460; read-out: pTGI): 5.25 µM | inhibition in vivo at 40 mg/kg [23]: 34% | GI50 (NCI-H522): 3.8 µM | CC50 (NCI-H522; [24]): 93.3 µM | TGI (NCI-H522; read-out: pTGI (converted)): 17.8 µM | GI50 (TK-10): 9.12 µM | CC50 (TK-10; [24]): 56.2 µM | TGI (TK-10; read-out: pTGI (converted)): 22.9 µM
